Square brackets hold non-standard residues; d marks the D form. Peptide text beside a SMILES is read from it. Bip = N[C@@H](Cc1ccc(-c2ccccc2)cc1)C(=O)O
Key:
[1] = test system: Enterococcus faecalis (ATCC BAA-2316); format: cell-based; settings: ATCC BAA-2316, 24 h
Text: (§1) All bacterial susceptibility, biofilm, and synergistic assays of peptides, antibiotics, and peptides-antibiotics combinations used bacterial strains obtained from the American Type Tissue Culture Collection (ATCC, Manassas, VA, USA) that states the mechanism of resistance for each strain according to ATCC number. Gram-positive bacteria were represented by five strains, the wild type strain Staphylococcus aureus (ATCC 29213) and methicillin-resistant S. aureus (MRSA) (ATCC 33591) in addition to clinically isolated strains S. aureus (ATCC BAA-41& 43300) and Enterococcus faecalis (ATCC BAA-2316). The Gram-negative bacteria strains were represented by wild type strains of Escherichia coli (ATCC 25922 & 35218) and Pseudomonas aeruginosa (ATCC 27853) as well as the clinically isolated multidrug-resistant strain P. aeruginosa (ATCC BAA-2114). The bacteria were cultured onto Muller Hinton Agar (Scharlab, S.L, Barcelona, Spain). Mueller Hinton Broth (Oxoid Ltd., Basingstoke, UK) was used to prepare all bacterial suspensions and to dissolve the peptides and the antibiotics. The assay was performed in sterile 96-well polypropylene microtiter plates.
(§2) All bacterial susceptibility assays were conducted according to the microbroth dilution method outlined by the Clinical and Laboratory Standards Institute (CLSI) guidelines.
(§3) Briefly, pre-sterilized MHB was used as a growth medium for organisms obtained from stock media with glycerol. Bacterial cells were grown overnight in MHB and diluted to 10^6 CFU/mL in the same medium prior to use. For peptide, serial concentrations in the range of 0.5–100 μM were prepared. Then, 50 μL of each peptide concentration and 50 µL of diluted bacterial suspension were added to each well of a 96-well microtiter plate. Peptide solutions were prepared by dissolving the peptide in sterile MHB. Then, the plates were incubated overnight in a humidified atmosphere, and at 37 °C. Bacterial growth was determined by measuring the optical density (OD) at λ = 600 nm using an ELISA plate reader (Epoch, BioTek, Winooski, VT, USA) and the minimum inhibitory concentration (MIC) was determined.

[2] = test system: Escherichia coli (ATCC 25922); format: cell-based; settings: ATCC 25922, 24 h
Text: as §1, §2, §3

[3] = test system: Escherichia coli (ATCC 35218); format: cell-based; settings: ATCC 35218, 24 h
Text: as §1, §2, §3

[4] = test system: Pseudomonas aeruginosa (ATCC 27853); format: cell-based; settings: ATCC 27853, 24 h
Text: as §1, §2, §3

[5] = test system: P. aeruginosa (ATCC BAA-2114); test: Broth microdilution checkerboard, UP-5 with antibiotics; format: cell-based, Pseudomonas aeruginosa; settings: P. auroginosa ATCC BAA-2114, checkerboard, triplicate
Text: as §1
According to the broth microdilution checkerboard technique, the MIC and MBC values of peptide-antibiotics combinations against wild type and multidrug resistant bacterial strains were determined. Serial concentrations of peptide and each antibiotic were prepared in the range of 0.005–100 μM. In each well of a 96-well microtiter plate, 25 μL of each peptide concentration were added to 25 μL of each antibiotic concentration which is followed by adding 50 μL of diluted bacterial suspension (10^6 CFU/mL) to each well. The prepared concentrations of peptide and each antibiotic were arranged into rows and columns, respectively, in a 96-well microtiter plate according the checkerboard technique. Then as described previously (see Section 2.4.1), the procedure was followed. All MIC and MBC determinations of all assays were made in triplicate.
The fractional inhibitory concentration (FIC) is defined as the inhibitory concentration of the antimicrobial combination divided by that of the single antimicrobial component. To calculate FIC index for peptide-antibiotic combinations, the following equation was used:(1) FIC index=MIC of drug X in combination/MIC of drug X alone+MIC of drug Y in combination/MIC of drug Y alone
The FIC indices were interpreted as follows: ≤0.5: synergistic activity, 0.5–1: additive activity, 1–4 indifferent, >4: antagonism. Interpretation and assessment of the FIC indices were performed according to the broth microdilution checkerboard technique.

Vero cells = format: cell-based; settings: 24 h
Description: Vero cells were seeded at 5 × 10^3 cells per well in flat-bottomed 96-well plates, and the plate was incubated for 18–24 h at 37 °C under 5% CO2 to allow cell attachment on the bottom of the plates. Next day, different concentrations of the peptide were prepared as a gradient using growth medium as the diluent (150, 200, 250, 300, 400, 500, and 600 µM). The plates were incubated for 24 h at 37 °C under 5% CO2. Next, 30 μL (2.5 g/L) MTT solutions were added to all wells and the plates were incubated for 4–6 h. After incubation, the MTT-Peptide solution was removed and a 100 μL of DMSO was added to each well and mixed thoroughly by pipetting to dissolve the Formazan crystals at the bottom of the wells until a clear purple color was achieved. The plates were then placed on an ELx808™ Absorbance Microplate Reader (BioTek, Winooski, VT, USA) and the absorbance was measured at λ = 540 nm.

For `N=C(N)NCCC[C@H](NC(=O)[C@H](Cc1ccc(-c2ccccc2)cc1)NC(=O)[C@H](CCCNC(=N)N)NC(=O)[C@H](Cc1ccc(-c2ccccc2)cc1)NC(=O)[C@@H](N)CCCNC(=N)N)C(=O)O` [UP-5] (H-R[Bip]R[Bip]R-OH), the “MBC Value” [1] was 70 µM, the “MIC Value” [1] was 70 µM and the “MBC Value” [2] was 55 µM. The “MIC Value” [2] was 55 µM, the “MBC Value” [3] was 60 µM and the “MIC Value” [3] was 60 µM. For the same compound, the “MBC Value” [4] was 65 µM, the “MIC Value” [4] was 65 µM and the “UP-5 MIC in Combination” value ([5]; UP-5 in combination with Ampicillin) was 20 µM. The “UP-5 MIC in Combination” value ([5]; UP-5 in combination with Chloramphenicol) was 10 µM, the “UP-5 MIC in Combination” value ([5]; UP-5 in combination with Erythromycin) was 27.5 µM and the “UP-5 MIC in Combination” value ([5]; UP-5 in combination with Levofloxacin) was 20 µM. For the same compound, the “UP-5 MIC in Combination” value ([5]; UP-5 in combination with Rifampicin) was 25 µM and the IC50 (Vero cells) was over 250 µM.

— paper PMC5874699, “Antimicrobial and Antibiofilm Activity of UP-5, an Ultrashort Antimicrobial Peptide Designed Using Only Arginine and Biphenylalanine” (Pharmaceuticals, 2018)
